Experimental data taken from patent publication US20080206198A1, “Compounds and methods for pharmico-gene therapy of epithelial sodium channel associated disorders” (priority 2003, published 2008).
Peptide text beside a SMILES is read from it. * marks the point of attachment. Cbz = O=C(OCc1ccccc1)*

Key:
[1] = system: polarized human airway epithelial cultures; test: AV2.RSVluc and AV2.RSVlucCap5 transduction of polarized human airway epithelial cultures; assay type: cell-based; conditions: virus applied to the apical surface
Source text: To better understand serotype-specific differences in airway transduction, the effect of proteasome inhibitors on rAAV-2 and rAAV-5 transduction in polarized human airway epithelial cultures and mouse lung was examined (FIGS. 2 and 6).

[2] = system: ENaC; test: Amiloride-sensitive short-circuit current in polarized CF airway epithelia; assay type: cell-based, human; conditions: data not shown
Description: Short-circuit current (Isc) measurement in polarized airway epithelia. Transepithelial short-circuit currents were measured using an epithelial voltage clamp and a self-contained Using chamber as described in Zabner et al. (1998). The basolateral side of the chamber was filled with Ringer's buffer solution containing 135 mM NaCl, 1.2 mM CaCl2, 2.4 mM KH2PO4, 0.2 mM K2HPO4, 1.2 mM MgCl2, and 5 mM HEPES, pH 7.4. The apical side of the chamber was filled with a low-chloride Ringer's containing 135 mM sodium gluconate, 1.2 mM CaCl2, 2.4 mM KH2PO4, 0.2 mM K2HPO4, 1.2 mM MgCl2, and 5 mM HEPES, pH 7.4. During the experiment, the chamber was maintained at 37° C. and aerated with 100% O2. Transepithelial voltage was clamped at zero, and the resulting Isc was measured and recorded following the sequential addition of the following channel antagonist and agonists: 1) 100 μM amiloride (apical), 2) 100 μM 4,4′-diisothiocyna-2,2′-disulfonic stilbene (DIDS) (apical), 3) 100 μM IBMX/10 μM forskolin (apical), 4) 100 μM bumetanide (basolateral). Voltage was referenced to the apical compartment. The series resistance of the Ringer's solution and transwell membrane was electrically compensated before starting experiments. All chemical agonists and antagonists were added to either the apical or the basolateral sides of the monolayer by direct injection and mixed by aerating the Ringer's solution. […]

[3] = system: ENaC; test: Amiloride-sensitive Isc time course in polarized CuFi epithelia; assay type: cell-based, human; conditions: 1 to 14 days
[4] = system: Balb/c mice; test: Safety of anthracyclines in Balb/c mice; assay type: in vivo, mouse; conditions: intranasal, 10% HDE
Source text: Animals were followed for seven days post dose.
Safety endpoints included morbidity and mortality, clinical observations, body weights, gross necropsy observations and histopathology. Transduction endpoints included luciferase and GFP analysis.

[5] = system: liver; test: rAAV transduction in liver with Z-LLL; assay type: in vivo, mouse; conditions: 1 month post-infection
Description: Recombinant AV.LacZ (5×10^10 particles) was also administered to mouse liver either as virus alone in PBS, virus in combination with 40 μM Z-LLL in PBS, or virus in combination with 20 μM LLnL in PBS. Virus was directly instilled into portal vein of the C57B6 mice. AAV-mediated LacZ transgene expression was evaluated by histology staining at 2 and 4 weeks post infection in frozen tissue sections.

[6] = system: mouse lung; test: AV2.RSVlucCap5 nasal aspiration in mice with Z-LLL and/or doxorubicin; assay type: in vivo; conditions: 200 μM
Description: To determine in vivo transduction efficiency of AV2.RSVlucCap5, mice were infected with 6×10^10 particles of AV2.RSVlucCap5 by nasal aspiration alone (control) or in combination with 200 μM Z-LLL, 200 μM doxorubicin or 200 μM Z-LLL and 200 μM doxorubicin (12 mice per group). Co-administration of Z-LLL induced whole lung luciferase expression 17.2- and 2.1-fold at 14 (2 weeks) and 42 (6 weeks) days post-infection, respectively.

N-acetyl-L-leucinyl-L-leucinal-L-norleucinal [LLnL]
increase in AV2.RSVlucCap5 transduction [1]: 12 fold

COc1cccc2c1C(=O)c1c(O)c3c(c(O)c1C2=O)C[C@@](O)(C(=O)CO)C[C@@H]3O[C@H]1C[C@H](N)[C@H](O)[C@H](C)O1 [doxorubicin]
inhibition of ENaC Isc by the single compound [2]: equivalent inhibition of ENaC Isc as seen with combined Dox/LLnL
ENaC Isc time course [3]: gradual decline in ENaC Isc
mortality and clinical observations ([4]; 7 days): early mortality of some animals, ruffled hair coats and sick mice
body weight ([4]; over the week): lost considerable body weight

CC(C)C[C@@H](C=O)NC(=O)[C@H](CC(C)C)NC(=O)[C@H](CC(C)C)NC(=O)OCc1ccccc1 [Z-LLL, N-carbobenzoxyl-L-leucinyl-L-leucinyl-L-leucinal] (Cbz-Leu-Leu-Leu-aldehyde)
increase in rAAV transduction in the liver [5]: 7 fold
induction of whole lung luciferase expression ([6]; 14 days (2 weeks) post-infection): 17.2 fold
induction of whole lung luciferase expression ([6]; 42 days (6 weeks) post-infection): 2.1 fold
